From patent publication US11926614B2, “1,2,4-triazole derivatives as tankyrase inhibitors” (priority 2018, dated 2024)
Like-named read-outs stand apart in the source and are kept apart here.

How the values were obtained:
TNKS2 = TNKS2 (Homo sapiens (Human), UniProt Q9H2K2); test: Biochemical IC50 TNKS2
Source text: (§1) XLfit (idbs) was used to determine the IC50-values in inhibition experiments. The following formula was chosen to fit the data points (Langmuir Binding Isotherm): fit=((A+(B*x))+4(C−B)*(1−exp((−1*D)*x)))/D)), res=(y−fit)

HEK293 = test: Cellular IC50 HEK293; format: cell-based; settings: Homo sapiens
Source text: as §1

[1] = read-out: Biochemical IC50 TNKS2
[2] = HEK293, HEK293, read-out: Cellular IC50 HEK293
[3] = HEK293, read-out: Cellular IC50 HEK293

TNKS2, sequence (Q9H2K2 whole entry): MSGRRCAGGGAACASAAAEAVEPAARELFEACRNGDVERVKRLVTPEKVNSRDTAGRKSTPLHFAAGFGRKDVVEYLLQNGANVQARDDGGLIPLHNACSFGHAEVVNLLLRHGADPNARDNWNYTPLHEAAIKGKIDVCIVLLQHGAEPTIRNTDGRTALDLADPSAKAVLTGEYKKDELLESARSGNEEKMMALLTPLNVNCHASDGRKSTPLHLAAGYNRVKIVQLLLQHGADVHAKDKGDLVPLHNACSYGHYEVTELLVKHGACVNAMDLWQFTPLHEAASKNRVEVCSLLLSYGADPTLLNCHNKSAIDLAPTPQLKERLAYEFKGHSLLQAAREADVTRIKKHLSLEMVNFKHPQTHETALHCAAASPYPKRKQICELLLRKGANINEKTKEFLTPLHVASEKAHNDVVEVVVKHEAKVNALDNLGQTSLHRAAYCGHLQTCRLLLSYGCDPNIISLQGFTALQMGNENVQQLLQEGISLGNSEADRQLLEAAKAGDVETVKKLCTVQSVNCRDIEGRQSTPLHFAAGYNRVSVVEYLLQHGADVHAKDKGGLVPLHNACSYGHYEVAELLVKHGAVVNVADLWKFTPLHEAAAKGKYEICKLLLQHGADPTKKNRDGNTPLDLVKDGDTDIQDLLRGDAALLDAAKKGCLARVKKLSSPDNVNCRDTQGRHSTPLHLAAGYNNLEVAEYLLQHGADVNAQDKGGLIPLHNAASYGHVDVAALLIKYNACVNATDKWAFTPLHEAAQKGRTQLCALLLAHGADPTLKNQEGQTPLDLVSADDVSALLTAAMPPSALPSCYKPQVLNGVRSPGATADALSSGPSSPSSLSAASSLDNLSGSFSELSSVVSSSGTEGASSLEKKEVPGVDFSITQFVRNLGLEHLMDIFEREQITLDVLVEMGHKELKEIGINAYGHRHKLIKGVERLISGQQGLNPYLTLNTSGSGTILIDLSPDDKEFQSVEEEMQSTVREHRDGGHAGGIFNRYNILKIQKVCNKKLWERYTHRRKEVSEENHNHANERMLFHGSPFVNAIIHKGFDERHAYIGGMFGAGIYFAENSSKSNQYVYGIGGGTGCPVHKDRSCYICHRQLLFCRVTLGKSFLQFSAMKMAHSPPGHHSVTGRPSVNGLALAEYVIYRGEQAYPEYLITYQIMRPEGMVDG

Row | Compound | IC50 (TNKS2; [1]) [nM] | IC50 (HEK293; [2]) [nM] | IC50 (TNKS2) [nM] | IC50 (HEK293; [3]) [nM]
1 | O=C(NC12CC(c3nnc(-c4ccncn4)n3-c3ccccc3Cl)(C1)C2)c1ccccn1 [Example 22, N-(3-(4-(2-chlorophenyl)-5-(pyrimidin-4-yl)-4H-1,2,4-triazol-3-yl)bicyclo[1.1.1]pentan-1-yl)picolinamide] | 3.8 | 25 |  | 
2 | CCOc1ccc(-c2nnc([C@H]3C[C@H](NC(=O)c4ccc5cccnc5n4)C3)n2-c2ccccc2F)nc1 [Example 147, N-((1S,3r)-3-(5-(5-ethoxypyridin-2-yl)-4-(2-fluorophenyl)-4H-1,2,4-triazol-3-yl)cyclobutyl)-1,8-naphthyridine-2-carboxamide] | 19 | 78 |  | 
3 | O=C(N[C@H]1C[C@H](c2nnc(-c3ccncn3)n2-c2ccccc2Cl)C1)c1ccc(F)cn1 [Example 17, N-((1S,3r)-3-(4-(2-chlorophenyl)-5-(pyrimidin-4-yl)-4H-1,2,4-triazol-3-yl)cyclobutyl)-5-fluoropicolinamide] | 2.7 | 2.4 |  | 
4 | [2H]C([2H])([2H])C([2H])([2H])Oc1ccc(-c2nnc([C@H]3C[C@H](NC(=O)c4cccc5cccnc45)C3)n2-c2ccccc2F)nc1 [Example 95, N-((1S,3r)-3-(5-(5-(ethoxy-d5)pyridin-2-yl)-4-(2-fluorophenyl)-4H-1,2,4-triazol-3-yl)cyclobutyl)quinoline-8-carboxamide] |  | 0.48 | 3.5 | 
5 | CCOc1ccc(-c2nnc([C@H]3C[C@H](NC(=O)c4ccc5ccccc5n4)C3)n2-c2ccccc2F)nc1 [Example 104, N-((1S,3r)-3-(5-(5-ethoxypyridin-2-yl)-4-(2-fluorophenyl)-4H-1,2,4-triazol-3-yl)cyclobutyl)quinoline-2-carboxamide] | 6.4 | 14 |  | 
6 | CCOc1ccc(-c2nnc([C@H]3C[C@H](NC(=O)c4ccccn4)C3)n2-c2ccccc2Cl)nc1 [Example 134, N-((1S,3r)-3-(4-(2-chlorophenyl)-5-(5-ethoxypyridin-2-yl)-4H-1,2,4-triazol-3-yl)cyclobutyl)picolinamide] | 3.7 | 4.5 |  | 
7 | CCOc1ccc(-c2nnc([C@H]3C[C@H](NC(=O)c4ccc5ncccc5n4)C3)n2-c2ccccc2F)nc1 [Example 96, N-((1S,3r)-3-(5-(5-ethoxypyridin-2-yl)-4-(2-fluorophenyl)-4H-1,2,4-triazol-3-yl)cyclobutyl)-1,5-naphthyridine-2-carboxamide] | 1.5 |  |  | 5
8 | CCOc1ccc(-c2nnc([C@H]3C[C@H](NC(=O)c4ccc(F)cn4)C3)n2-c2ccccc2F)nc1 [Example 59, N-((1S,3r)-3-(5-(5-ethoxypyridin-2-yl)-4-(2-fluorophenyl)-4H-1,2,4-triazol-3-yl)cyclobutyl)-5-fluoropicolinamide] | 2.4 | 9.5 |  | 
9 | CCOc1ccc(-c2nnc([C@H]3C[C@H](NC(=O)c4ccccn4)C3)n2-c2cccc(Cl)c2)nc1 [Example 140, N-((1r,3r)-3-(4-(3-chlorophenyl)-5-(5-ethoxypyridin-2-yl)-4H-1,2,4-triazol-3-yl)cyclobutyl)picolinamide] | 13 |  |  | 83
10 | O=C(N[C@H]1C[C@H](c2nnc(-c3ccccn3)n2-c2ccccc2F)C1)c1cccc2nccnc12 [Example 193, N-((1S,3r)-3-(4-(2-fluorophenyl)-5-(pyridin-2-yl)-4H-1,2,4-triazol-3-yl)cyclobutyl)quinoxaline-5-carboxamide] | 1.6 |  |  | 0.286
11 | CCOc1ccc(-c2nnc([C@H]3C[C@H](NC(=O)c4ccc5ncccc5n4)C3)n2-c2cccnc2)nc1 [Example 163, N-((1r,3r)-3-(5-(5-ethoxypyridin-2-yl)-4-(pyridin-3-yl)-4H-1,2,4-triazol-3-yl)cyclobutyl)-1,5-naphthyridine-2-carboxamide] | 14 | 71 |  | 
12 | O=C(N[C@H]1C[C@H](c2nnc(-c3nccs3)n2-c2cccnc2)C1)c1cccc2cccnc12 [Example 114, N-((1r,3r)-3-(4-(pyridin-3-yl)-5-(thiazol-2-yl)-4H-1,2,4-triazol-3-yl)cyclobutyl)quinoline-8-carboxamide] | 20 | 230 |  | 
13 | O=C(N[C@H]1C[C@H](c2nnc(-c3ccncn3)n2-c2ccccc2Cl)C1)c1ccnc2ccccc12 [Example 6, N-((1S,3r)-3-(4-(2-chlorophenyl)-5-(pyrimidin-4-yl)-4H-1,2,4-triazol-3-yl)cyclobutyl)quinoline-4-carboxamide] | 680 | 1300 |  | 
14 | O=C(N[C@H]1C[C@H](c2nnc(-c3ccncn3)n2-c2ccccc2Cl)C1)c1ccncn1 [Example 11, N-((1S,3r)-3-(4-(2-chlorophenyl)-5-(pyrimidin-4-yl)-4H-1,2,4-triazol-3-yl)cyclobutyl)pyrimidine-4-carboxamide] | 3.5 | 4 |  | 
15 | Cc1ccc(-n2c(-c3nccs3)nnc2[C@H]2C[C@H](NC(=O)c3ccnc4cccnc34)C2)s1 [Example 89, N-((1r,3r)-3-(4-(5-methylthiophen-2-yl)-5-(thiazol-2-yl)-4H-1,2,4-triazol-3-yl)cyclobutyl)-1,5-naphthyridine-4-carboxamide] | 2.7 | 2.4 |  | 
16 | CCOc1ccc(-c2nnc([C@H]3C[C@H](NC(=O)c4ccc5cc[nH]c5n4)C3)n2-c2ccccc2F)nc1 [Example 98, N-((1S,3r)-3-(5-(5-ethoxypyridin-2-yl)-4-(2-fluorophenyl)-4H-1,2,4-triazol-3-yl)cyclobutyl)-1H-pyrrolo[2,3-b]pyridine-6-carboxamide] | 4.9 | 14 |  | 
17 | CCOc1ccc(-c2nnc([C@H]3C[C@H](NC(=O)c4ccc5cnccc5n4)C3)n2-c2ccccc2F)nc1 [Example 97, N-((1S,3r)-3-(5-(5-ethoxypyridin-2-yl)-4-(2-fluorophenyl)-4H-1,2,4-triazol-3-yl)cyclobutyl)-1,6-naphthyridine-2-carboxamide] | 2.5 | 7.5 |  | 
18 | Cc1ccc(-n2c(-c3nccs3)nnc2[C@H]2C[C@H](NC(=O)c3ccccn3)C2)s1 [Example 88, N-((1r,3r)-3-(4-(5-methylthiophen-2-yl)-5-(thiazol-2-yl)-4H-1,2,4-triazol-3-yl)cyclobutyl)picolinamide] | 47 | 93 |  | 
19 | CCOc1ccc(-c2nnc([C@H]3C[C@H](NC(=O)c4ccccc4)C3)n2-c2ccccc2)nc1 [Example 72, N-((1r,3r)-3-(5-(5-ethoxypyridin-2-yl)-4-phenyl-4H-1,2,4-triazol-3-yl)cyclobutyl)benzamide] | 14 | 30 |  | 
20 | CCOc1ccc(-c2nnc([C@H]3C[C@H](NC(=O)c4ccnc5cccnc45)C3)n2-c2ccc(C)s2)nc1 [Example 82, N-((1r,3r)-3-(5-(5-ethoxypyridin-2-yl)-4-(5-methylthiophen-2-yl)-4H-1,2,4-triazol-3-yl)cyclobutyl)-1,5-naphthyridine-4-carboxamide] | 0.73 |  |  | 0.81
21 | CCOc1ccc(-c2nnc([C@H]3C[C@H](NC(=O)c4ccc(C(C)O)cn4)C3)n2-c2ccccc2F)nc1 (mixture of isomers) [Example 100, rac-N-((1R,3r)-3-(5-(5-ethoxypyridin-2-yl)-4-(2-fluorophenyl)-4H-1,2,4-triazol-3-yl)cyclobutyl)-5-(1-hydroxyethyl)picolinamide] |  | 48 | 8.2 | 
22 | CCOc1ccc(-c2nnc([C@H]3C[C@H](NC(=O)c4cc5cnccc5[nH]4)C3)n2-c2ccccc2F)nc1 [Example 157, N-((1S,3r)-3-(5-(5-ethoxypyridin-2-yl)-4-(2-fluorophenyl)-4H-1,2,4-triazol-3-yl)cyclobutyl)-1H-pyrrolo[3,2-c]pyridine-2-carboxamide] | 4.4 | 34 |  | 
23 | O=C(N[C@H]1C[C@H](c2nnc(-c3ccccn3)n2-c2ccccc2F)C1)c1cc(F)cc2nccnc12 [Example 194, 7-fluoro-N-((1S,3r)-3-(4-(2-fluorophenyl)-5-(pyridin-2-yl)-4H-1,2,4-triazol-3-yl)cyclobutyl)quinoxaline-5-carboxamide] | 2 |  |  | 0.794
24 | CCOc1ccc(-c2nnc([C@H]3C[C@H](NC(=O)c4cc5cccnc5[nH]4)C3)n2-c2ccccc2F)nc1 [Example 152, N-((1S,3r)-3-(5-(5-ethoxypyridin-2-yl)-4-(2-fluorophenyl)-4H-1,2,4-triazol-3-yl)cyclobutyl)-1H-pyrrolo[2,3-b]pyridine-2-carboxamide] | 19 | 144 |  | 
25 | O=C(NC12CC(c3nnc(-c4ccncn4)n3-c3ccccc3Cl)(C1)C2)c1ccccc1 [Example 23, N-(3-(4-(2-chlorophenyl)-5-(pyrimidin-4-yl)-4H-1,2,4-triazol-3-yl)bicyclo[1.1.1]pentan-1-yl)benzamide] | 3.8 | 100 |  | 
26 | O=C(N[C@H]1C[C@H](c2nnc(-c3ccccc3)n2-c2ccccc2F)C1)c1ccnc2cccnc12 [Example 176, N-((1S,3r)-3-(4-(2-fluorophenyl)-5-phenyl-4H-1,2,4-triazol-3-yl)cyclobutyl)-1,5-naphthyridine-4-carboxamide] | 3.6 | 28 |  | 
27 | CCOc1ccc(-c2nnc([C@H]3C[C@H](NC(=O)c4cccc5cccnc45)C3)n2-c2ccccc2F)nc1 [Example 60, N-((1S,3r)-3-(5-(5-ethoxypyridin-2-yl)-4-(2-fluorophenyl)-4H-1,2,4-triazol-3-yl)cyclobutyl)quinoline-8-carboxamide] | 2.1 | 1.1 |  | 
28 | [2H]C([2H])([2H])Oc1ccc(-c2nnc([C@H]3C[C@H](NC(=O)c4ccccn4)C3)n2-c2ccccc2F)nc1 [Example 113, N-((1S,3r)-3-(4-(2-fluorophenyl)-5-(5-(methoxy-d3)pyridin-2-yl)-4H-1,2,4-triazol-3-yl)cyclobutyl)picolinamide] |  | 74 | 5.6 | 
